Assay results taken from patent US8598154B2 (Corcept Therapeutics, Inc., priority 2010, dated 2013).

Tests used:
[1] = biological target: T1, glucocorticoid receptors (GR) in SW1353/MMTV-5 cells (Homo sapiens, UniProt P04150); experiment: GR functional assay using SW1353/MMTV-5 cells (MMTV-luciferase reporter); format: cell-based
T1 construct: contains endogenous glucocorticoid receptors; endogenous in cells; host or cells: SW1353/MMTV-5 (human chondrosarcoma, stably transfected with the pMAMneo-Luc reporter only)
T1 sequence (P04150 1-777): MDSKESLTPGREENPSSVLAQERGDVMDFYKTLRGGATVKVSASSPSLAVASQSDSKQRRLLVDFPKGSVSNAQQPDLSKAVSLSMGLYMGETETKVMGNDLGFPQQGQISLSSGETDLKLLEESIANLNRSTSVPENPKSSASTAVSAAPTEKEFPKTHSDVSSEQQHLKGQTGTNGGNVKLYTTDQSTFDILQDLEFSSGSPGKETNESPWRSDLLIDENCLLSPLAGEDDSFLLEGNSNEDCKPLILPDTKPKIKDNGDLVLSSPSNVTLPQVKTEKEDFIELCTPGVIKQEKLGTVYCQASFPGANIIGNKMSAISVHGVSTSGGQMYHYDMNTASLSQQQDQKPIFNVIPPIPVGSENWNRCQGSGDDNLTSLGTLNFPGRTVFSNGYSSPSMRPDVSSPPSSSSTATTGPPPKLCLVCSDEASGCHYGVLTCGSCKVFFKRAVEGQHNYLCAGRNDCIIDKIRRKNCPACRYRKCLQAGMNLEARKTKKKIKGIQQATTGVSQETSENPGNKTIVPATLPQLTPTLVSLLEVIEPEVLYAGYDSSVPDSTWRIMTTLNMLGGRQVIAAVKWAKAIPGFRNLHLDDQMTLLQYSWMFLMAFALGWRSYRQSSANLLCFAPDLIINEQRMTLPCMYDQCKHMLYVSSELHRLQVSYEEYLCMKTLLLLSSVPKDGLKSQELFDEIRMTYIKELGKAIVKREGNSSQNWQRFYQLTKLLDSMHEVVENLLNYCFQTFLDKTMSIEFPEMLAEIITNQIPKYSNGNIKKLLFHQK
Method: SW1353/MMTV-5 is an adherent human chondrosarcoma cell line that contains endogenous glucocorticoid receptors. It was transfected with a plasmid (pMAMneo-Luc) encoding firefly luciferase located behind a glucocorticoid-responsive element (GRE) derived from a viral promoter (long terminal repeat of mouse mammary tumor virus). A stable cell line SW1353/MMTV-5 was selected with geneticin, which was required to maintain this plasmid.
SW1353/MMTV-5 cells were distributed in 96-well plates and incubated in medium (without geneticin) for 24 hrs (in the absence of CO2).

[2] = biological target: T2, Human Recombinant Glucocorticoid Receptor (Homo sapiens, UniProt P04150); experiment: Glucocorticoid receptor binding displacement assay with 3H-dexamethasone; details: displacement of 2.5 nM 3H-dexamethasone; Ki from IC50 by Cheng-Prusoff; read-out: GR Binding Ki
T2 construct: This GR was a full-length steroid hormone receptor likely to be associated with heat-shock and other endogenous proteins; host or cells: baculovirus-infected insect cells
T2 sequence (P04150 1-777): T1 sequence (P04150 1-777)
Method: The source of the receptor was recombinant baculovirus-infected insect cells. This GR was a full-length steroid hormone receptor likely to be associated with heat-shock and other endogenous proteins.
For the Primary Screen, test compounds were tested at 1 μM in duplicate. These compounds were diluted from 10 mM stock in 100% DMSO. After dilution to 100 μM, 5 μl were added to 245 μl assay buffer to obtained 2 μM compound and 2% DMSO.
For the IC50 determinations, test compounds were tested at 6 concentrations in duplicate (concentration range depends on % inhibition binding that was obtained in the Primary Screen). Test compounds were diluted from 10 mM stock in 100% DMSO. The tested solutions were prepared at 2× final assay concentration in 2% DMSO/assay buffer.
All reagents and the assay plate were kept on ice during the addition of reagents. […] After the additions, the incubation mixture was mixed and incubated for 2.5 hrs at 4° C.
After 2.5 hrs incubation, unbound counts were removed with dextran coated charcoal (DCC) as follows: 25 μl of DCC solution (10% DCC in assay buffer) was added to all wells and mixed (total volume 225 μl). The plate was centrifuged at 4000 rpm for 10 minutes at 4° C. 75 μl of the supernatants (i.e.⅓ of total volume) was carefully pipetted into an optiplate. 200 μl of scintillation cocktail were added (Microscint-40, Packard Bioscience. B.V.). The plate was vigorously shaken for approx. 10 minutes and counted on Topcount.
The IC50 values were converted to Ki (the inhibition constant) using the Cheng-Prusoff equation. Test results are presented in Tablel.
Reagents: Assay buffer: 10 mM potassium phosphate buffer pH 7.6 containing 5 mM DTT, 10 mM sodium molybdate, 100 μM EDTA and 0.1% BSA.

Structure (SMILES)	Ki [1]	Ki [2]
CCOC[C@]12Cc3cnn(-c4ccc(F)cc4)c3C=C1CCN(S(=O)(=O)c1ccc(N3CCOCC3)nc1)C2 [Example 1, (R)-4a-Ethoxymethyl-1-(4-fluorophenyl)-6-[[6-(4-morpholinyl)-3-pyridinyl]sulfonyl]-1,4,7,8-tetrahydro-1,2,6-triazacyclopenta[b]naphthalene]	< 10 nM	< 0.5 nM
COC(=O)[C@]12Cc3cnn(-c4ccc(F)cc4)c3C=C1CCN(S(=O)(=O)c1ccc(N3CCOCC3)nc1)C2 [Example 1c, (R)-1-(4-Fluorophenyl)-6-(6-morpholin-4-ylpyridine-3-sulfonyl)-1,4,5,6,7,8-hexahydro-1,2,6-triazacyclopenta[b]naphthalene-4a-carboxylic acid methyl ester]	> 50 nM	> 1 nM
O=S(=O)(c1ccc(N2CCOCC2)nc1)N1CCC2=Cc3c(cnn3-c3ccc(F)cc3)C[C@]2(CO)C1 [Example 1d, [(R)-1-(4-Fluorophenyl)-6-[[6-(4-morpholinyl)-3-pyridinyl]sulfonyl]-1,4,7,8-tetrahydro-1,2,6-triazacyclopenta[b]naphthalen-4a-yl]methanol]	> 50 nM	> 1 nM
CCOC[C@]12Cc3cnn(-c4ccc(F)cc4)c3C=C1CCN(S(=O)(=O)c1cccnc1)C2 [Example 2, (R)-4a-Ethoxymethyl-1-(4-fluorophenyl)-6-[[3-pyridinyl]sulfonyl]-1,4,7,8-tetrahydro-1,2,6-triazacyclopenta[b]naphthalene]	10 to 50 nM	0.5 to 1 nM
CCOC[C@]12Cc3cnn(-c4ccc(F)cc4)c3C=C1CCN(S(=O)(=O)c1cnc3c(c1)OCCN3C)C2 [Example 3]	10 to 50 nM	< 0.5 nM
CCOC[C@]12Cc3cnn(-c4ccc(F)cc4)c3C=C1CCN(S(=O)(=O)c1ccc(N3CCCC3)nc1)C2 [Example 4, (R)-4a-Ethoxymethyl-1-(4-fluorophenyl)-6-[[6-(1-pyrrolidinyl)-3-pyridinyl]sulfonyl]-1,4,7,8-tetrahydro-1,2,6-triazacyclopenta[b]naphthalene]	10 to 50 nM	> 1 nM
COC[C@]12Cc3cnn(-c4ccc(F)cc4)c3C=C1CCN(S(=O)(=O)c1ccc(N3CCCC3)nc1)C2 [Example 5, (R)-1-(4-Fluorophenyl)-4a-methoxymethyl-6-[[6-(1-pyrrolidinyl)-3-pyridinyl]sulfonyl]-1,4,7,8-tetrahydro-1,2,6-triazacyclopenta[b]naphthalene]	10 to 50 nM	0.5 to 1 nM
CCOC[C@]12Cc3cnn(-c4ccc(F)cc4)c3C=C1CCN(S(=O)(=O)c1ccc(N3CCC3)nc1)C2 [Example 6, (R)-6-[[6-(1-Azetidinyl)-3-pyridinyl]sulfonyl]-4a-ethoxymethyl-1-(4-fluorophenyl)-1,4,7,8-tetrahydro-1,2,6-triazacyclopenta[b]naphthalene]	10 to 50 nM	0.5 to 1 nM
CCOC[C@]12Cc3cnn(-c4ccc(F)cc4)c3C=C1CCN(S(=O)(=O)c1ccc(NC)nc1)C2 [Example 7, (R)-4a-Ethoxymethyl-1-(4-fluorophenyl)-6-[[6-methylamino-3-pyridinyl]sulfonyl]-1,4,7,8-tetrahydro-1,2,6-triazacyclopenta[b]naphthalene]	10 to 50 nM	< 0.5 nM
CCOC[C@]12Cc3cnn(-c4ccc(F)cc4)c3C=C1CCN(S(=O)(=O)c1ccc(N(C)C)nc1)C2 [Example 8, (R)-6-[[6-Dimethylamino-3-pyridinyl]sulfonyl]-4a-ethoxymethyl-1-(4-fluorophenyl)-1,4,7,8-tetrahydro-1,2,6-triazacyclopenta[b]naphthalene]	< 10 nM	< 0.5 nM
O=S(=O)(c1ccc(N2CC[C@@H](O)C2)nc1)N1CCC2=Cc3c(cnn3-c3ccc(F)cc3)C[C@]2(CN2CC[C@H](O)C2)C1 [Example 46, (S)-1-{(S)-1-(4-Fluorophenyl)-6-[6-((R)-3-hydroxy-pyrrolidin-3-ol)-pyridine-3-sulfonyl]-1,4,5,6,7,8-hexahydro-1,2,6-triaza-cyclopenta[b]naphthalene-4a-ylmethyl}-pyrrolidin-3-ol]	–	> 1 nM
